Results as given in patent publication US5837817A, “Tumor necrosis factor receptor-II-associated protein kinase and methods for its use” (Research Development Foundation, priority 1996, dated 1998).

Columns and labels:
purified casein kinase 1 = target: T1, purified casein kinase 1 (Rattus norvegicus, UniProt Q06486); experiment: In vitro kinase assay with purified casein kinase 1, p80Δ5 as substrate; format: biochemical; conditions: 100 μM inhibitor; 10 units purified casein kinase 1; read-out: inhibition of purified casein kinase 1, measured by phosphorylation of p80Δ5
T1 construct: purchased New England Biolabs, Beverly, Mass
T1 sequence (Q06486 1-317 limits assumed): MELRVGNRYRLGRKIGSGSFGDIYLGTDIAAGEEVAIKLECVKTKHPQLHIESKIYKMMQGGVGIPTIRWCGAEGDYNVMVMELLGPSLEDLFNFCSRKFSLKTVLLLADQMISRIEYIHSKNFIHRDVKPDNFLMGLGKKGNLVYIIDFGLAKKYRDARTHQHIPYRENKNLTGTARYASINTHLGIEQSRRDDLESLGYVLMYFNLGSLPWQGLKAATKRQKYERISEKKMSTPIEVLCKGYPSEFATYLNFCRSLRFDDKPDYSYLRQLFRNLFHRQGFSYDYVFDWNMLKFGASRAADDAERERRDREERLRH
Description: (§1) An in vitro kinase assay with 10 units of purified casein kinase 1 (FIG. 11A) or p80TRAK precipitated from U937 cells with p80Δ5 (FIG. 8B) with p80Δ5 as a substrate was performed in the presence of the indicated concentration of casein kinase 1-7 dissolved in DMSO. The asterisk represents a control in which DMSO was added to a final concentration of 1.6%. Reaction mixtures were analyzed by 9% sodium dodecyl sulfate-polyacrylamide gel electrophoresis, and the dried gel was exposed to a PhosphorImager screen. The phosphorylation of p80Δ5 was quantitated by ImageQuant Software (Molecular Dynamics, Sunnyvale, Calif.) .
(§2) Standard kinase assays were carried out for 10 minutes at 37° C. in 50 μl containing 20 mM HEPES, pH 7.4, 10 mM MgCl2, 0.2 mM ATP, 0.2 mM NaF, 0.1 mM sodium orthovanadate, and 10 μCi [γ-^32 P]ATP or as described. Reactions were stopped with 15 μl SDS-sample buffer, boiled for 5 minutes and then subjected to SDS-PAGE. Protein bands were visualized by staining with Coomassie Blue and the dried gels were analyzed by a Phosphorimager (Molecular Dynamics, Sunnyvale, Calif.). Labeled protein bands were quantitated by using ImageQuant Software (Molecular Dynamics, Sunnyvale, Calif.). […]

p80TRAK = experiment: In vitro kinase assay with p80TRAK precipitated from U937 cells with p80Δ5, p80Δ5 as substrate; format: biochemical
Description: as §1, §2

[1] = tested on: p80 receptor phosphorylation, SW480T cells; conditions: pretreatment of SW480T cells; cited from earlier work

inhibition at 100 µM (purified casein kinase 1) [%] | Structure (SMILES) | effect on p80TRAK activity as measured by phosphorylation of p80Δ5 (in words) (p80TRAK) | inhibition of p80TRAK, measured by phosphorylation of p80Δ5 (p80TRAK; 100 μM inhibitor, p80TRAK precipitated from U937 cells) [%] | extent of phosphorylation of the p80 receptor [1]
80 | NCCNS(=O)(=O)c1ccc(Cl)c2ccncc12 [casein kinase 1-7] | inhibited | 50 | –
– | CN[C@@H]1C[C@H]2O[C@@](C)([C@@H]1OC)n1c3ccccc3c3c4c(c5c6ccccc6n2c5c31)C(=O)NC4 [staurosporine] | – | – | reduced
